≈ marks a conversion by molar mass, not a printed value. Where “and” joins values, the source holds several entries; their conditions need not be identical. Identical values can stand only once.
What was measured:
Experiment in all cases: Broth microdilution MIC, Example 7 (NCL812 and analogues)
MRSA = format: cell-based, Staphylococcus aureus
Procedure, shortened: (§1)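 Duplicates per isolate, repeated a third time if >one two-fold dilution apart. MIC50, MIC20 and range calculated per bacterial group.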

VRE = format: cell-based, Enterococcus spp.; conditions: for activity against VRE among analogues: MIC testing, two VRE strains
Procedure, shortened: as §1

Escherichia coli = format: cell-based; conditions: E. coli, 24 hours
Pseudomonas aeruginosa = format: cell-based; conditions: P. aeruginosa, 24 hours
[1] = MRSA 1, 24 hours, duplicate lines per compound
[2] = MRSA 2, 24 hours, duplicate lines per compound
[3] = VRE 1, 24 hours, duplicate lines per compound
[4] = VRE 2, 24 hours, duplicate lines per compound

| Structure (SMILES) | MIC (μg/ml) at 24 hours, MRSA 1 (MRSA; MRSA 1, 24 hours) | MIC (μg/ml) at 24 hours, MRSA 2 (MRSA; MRSA 2, 24 hours) | MIC (μg/ml) at 24 hours, VRE 1 (VRE; VRE 1, 24 hours) | MIC (μg/ml) at 24 hours, VRE 2 (VRE; VRE 2, 24 hours) | MIC (μg/ml) at 24 hours, E. coli (Escherichia coli) | MIC (μg/ml) at 24 hours, P. aeruginosa (Pseudomonas aeruginosa) | MIC (μg/ml) at 24 hours, MRSA 1 (MRSA; [1]) | MIC (μg/ml) at 24 hours, MRSA 2 (MRSA; [2]) | MIC (μg/ml) at 24 hours, VRE 1 (VRE; [3]) | MIC (μg/ml) at 24 hours, VRE 2 (VRE; [4]) | MIC (μg/ml) at 24 hours, E. coli (Escherichia coli; duplicate lines per compound) | MIC (μg/ml) at 24 hours, P. aeruginosa (Pseudomonas aeruginosa; duplicate lines per compound) | activity against MRSA among analogues (MRSA; MIC testing, two MRSA strains) | MRSA (MRSA; bioassay ranking, MRSA) | activity against VRE among analogues (VRE) | VRE (VRE; bioassay ranking, VRE) |
| --- | --- | --- | --- | --- | --- | --- | --- | --- | --- | --- | --- | --- | --- | --- | --- | --- |
| Cc1ccc(/C=N/NC(=N)N/N=C/c2ccc(C)cc2)cc1.Cl [NCL 038] |  |  |  |  |  |  | 8 µg/mL | 8 µg/mL | 8 µg/mL | 8 µg/mL | >128 µg/mL | >128 µg/mL |  |  |  |  |
| COc1ccc(C=NNC(=N)NN=Cc2ccc(OC)c(OC)c2)cc1OC.Cl [NCL 115] |  |  |  |  |  |  | >128 µg/mL | >128 µg/mL | >128 µg/mL | >128 µg/mL | >128 µg/mL | >128 µg/mL |  |  |  |  |
| Cl.N=C(NN=Cc1ccccc1-c1ccccc1)NN=Cc1ccccc1-c1ccccc1 [NCL 116] |  |  |  |  |  |  | >128 µg/mL | >128 µg/mL | >128 µg/mL | >128 µg/mL | >128 µg/mL | >128 µg/mL |  |  |  |  |
| COc1cc(/C=N/NC(=N)N/N=C/c2ccc(O)c(OC)c2)ccc1O.Cl [NCL 117] |  |  |  |  |  |  | 64 µg/mL | 128 µg/mL | 64 µg/mL | 64 µg/mL | >128 µg/mL | >128 µg/mL |  |  |  |  |
| Cl.N=C(N/N=C/c1cc(F)ccc1F)N/N=C/c1cc(F)ccc1F [NCL 118] |  |  |  |  |  |  | >128 µg/mL | >128 µg/mL | >128 µg/mL | >128 µg/mL | >128 µg/mL | >128 µg/mL |  |  |  |  |
| CC(=O)Nc1ccc(C=NNC(=N)NN=Cc2ccc(NC(C)=O)cc2)cc1.Cl [NCL 119] |  |  |  |  |  |  | >128 µg/mL | >128 µg/mL | >128 µg/mL | >128 µg/mL | >128 µg/mL | >128 µg/mL |  |  |  |  |
| CC(C)c1ccc(/C=N/NC(=N)N/N=C/c2ccc(C(C)C)cc2)cc1.Cl [NCL 120] |  |  |  |  |  |  | 8 µg/mL | 4 µg/mL and 8 µg/mL | 2 µg/mL | 8 µg/mL | >128 µg/mL | >128 µg/mL |  |  |  |  |
| CCCc1ccc(C=NNC(=N)NN=Cc2ccc(CCC)cc2)cc1.Cl [NCL 121] |  |  |  |  |  |  | 32 µg/mL | 32 µg/mL | 8 µg/mL | 32 µg/mL and 64 µg/mL | >128 µg/mL | >128 µg/mL |  |  |  |  |
| Cl.N=C(NN=Cc1ccc(O)c([N+](=O)[O-])c1)NN=Cc1ccc(O)c([N+](=O)[O-])c1 [NCL 122] |  |  |  |  |  |  | >128 µg/mL | >128 µg/mL | >128 µg/mL | >128 µg/mL | >128 µg/mL | >128 µg/mL |  |  |  |  |

Second part, led by results:

| MIC (μg/ml) at 24 hours, MRSA 1 (MRSA; MRSA 1, 24 hours) | MIC (μg/ml) at 24 hours, MRSA 2 (MRSA; MRSA 2, 24 hours) | MIC (μg/ml) at 24 hours, VRE 1 (VRE; VRE 1, 24 hours) | MIC (μg/ml) at 24 hours, VRE 2 (VRE; VRE 2, 24 hours) | MIC (μg/ml) at 24 hours, E. coli (Escherichia coli) | MIC (μg/ml) at 24 hours, P. aeruginosa (Pseudomonas aeruginosa) | MIC (μg/ml) at 24 hours, MRSA 1 (MRSA; [1]) | MIC (μg/ml) at 24 hours, MRSA 2 (MRSA; [2]) | MIC (μg/ml) at 24 hours, VRE 1 (VRE; [3]) | MIC (μg/ml) at 24 hours, VRE 2 (VRE; [4]) | MIC (μg/ml) at 24 hours, E. coli (Escherichia coli; duplicate lines per compound) | MIC (μg/ml) at 24 hours, P. aeruginosa (Pseudomonas aeruginosa; duplicate lines per compound) | Structure (SMILES) | activity against MRSA among analogues (MRSA; MIC testing, two MRSA strains) | MRSA (MRSA; bioassay ranking, MRSA) | activity against VRE among analogues (VRE) | VRE (VRE; bioassay ranking, VRE) |
| --- | --- | --- | --- | --- | --- | --- | --- | --- | --- | --- | --- | --- | --- | --- | --- | --- |
| 16 µg/mL and 32 µg/mL | 32 µg/mL (≈ 87.8 µM) | >128 µg/mL | >128 µg/mL | >128 µg/mL | >128 µg/mL |  |  |  |  |  |  | Nc1nc(N/N=C/c2ccccc2O)nc(N/N=C/c2ccccc2O)n1 [NCL207] | greatest activity | 28 µg/mL |  |  |
| >128 µg/mL | >128 µg/mL | >128 µg/mL | >128 µg/mL | >128 µg/mL | >128 µg/mL |  |  |  |  |  |  | C/C(=N\Nc1nc(N)nc(N/N=C(\C)c2ccc(Cl)cc2)n1)c1ccc(Cl)cc1 [NCL208] |  |  |  |  |
| >128 µg/mL | >128 µg/mL | >128 µg/mL | >128 µg/mL | >128 µg/mL | >128 µg/mL |  |  |  |  |  |  | Nc1nc(N/N=C/c2cccc(O)c2)nc(N/N=C/c2cccc(O)c2)n1 [NCL209] |  |  |  |  |
| >128 µg/mL | >128 µg/mL | 128 µg/mL (≈ 273 µM) | 32 µg/mL and 64 µg/mL | >128 µg/mL | >128 µg/mL |  |  |  |  |  |  | Nc1nc(N/N=C/c2ccc(C(F)(F)F)cc2)nc(N/N=C/c2ccc(C(F)(F)F)cc2)n1 [NCL210] |  |  | greatest activity |  |
| >128 µg/mL | >128 µg/mL | >128 µg/mL | >128 µg/mL | >128 µg/mL | >128 µg/mL |  |  |  |  |  |  | Nc1nc(N/N=C/c2ccc(O)cc2)nc(N/N=C/c2ccc(O)cc2)n1 [NCL211] |  |  |  |  |
| >128 µg/mL | >128 µg/mL and 128 µg/mL | 32 µg/mL (≈ 65.3 µM) | 16 µg/mL (≈ 32.6 µM) | >128 µg/mL | >128 µg/mL |  |  |  |  |  |  | Nc1nc(N/N=C/c2ccc(Br)cc2)nc(N/N=C/c2ccc(Br)cc2)n1 [NCL212] |  |  | greatest activity | 24 µg/mL |
| >128 µg/mL | >128 µg/mL | >128 µg/mL | >128 µg/mL | >128 µg/mL | >128 µg/mL |  |  |  |  |  |  | Nc1nc(N/N=C/C2CCCCC2)nc(N/N=C/C2CCCCC2)n1 [NCL213] |  |  |  |  |
| >128 µg/mL | >128 µg/mL | >128 µg/mL | >128 µg/mL | >128 µg/mL | >128 µg/mL |  |  |  |  |  |  | Nc1nc(N/N=C/c2ccccc2)nc(N/N=C/c2ccccc2)n1 [NCL214] |  |  |  |  |
| >128 µg/mL | >128 µg/mL | >128 µg/mL | >128 µg/mL | >128 µg/mL | >128 µg/mL |  |  |  |  |  |  | Nc1nc(N/N=C/c2ccc(F)c(F)c2)cc(N/N=C/c2ccc(F)c(F)c2)n1 [NCL222] |  |  |  |  |
| >128 µg/mL | >128 µg/mL | >128 µg/mL | >128 µg/mL | >128 µg/mL | >128 µg/mL |  |  |  |  |  |  | CC(=O)Nc1ccc(/C=N/Nc2cc(N/N=C/c3ccc(NC(C)=O)cc3)nc(N)n2)cc1 [NCL223] |  |  |  |  |
| >128 µg/mL | >128 µg/mL | >128 µg/mL | >128 µg/mL | >128 µg/mL | >128 µg/mL |  |  |  |  |  |  | CCOC(=O)N(/N=C/c1ccc(Cl)cc1)C(N)=N/N=C/c1ccc(Cl)cc1 [NCL224] |  |  |  |  |
| >128 µg/mL | >128 µg/mL | >128 µg/mL | >128 µg/mL | >128 µg/mL | >128 µg/mL |  |  |  |  |  |  | CC(C)COC(=O)N(N=Cc1ccc(Cl)cc1)C(N)=NN=Cc1ccc(Cl)cc1 [NCL225] |  |  |  |  |
| >128 µg/mL | >128 µg/mL | >128 µg/mL | >128 µg/mL | >128 µg/mL | >128 µg/mL |  |  |  |  |  |  | CCNC(=O)N(/N=C/c1ccc(Cl)cc1)C(N)=N/N=C/c1ccc(Cl)cc1 [NCL226] |  |  |  |  |
| >128 µg/mL | >128 µg/mL | >128 µg/mL | >128 µg/mL | >128 µg/mL | >128 µg/mL |  |  |  |  |  |  | N=C(N/N=C/c1ccc(Cl)cc1)N(/N=C/c1ccc(Cl)cc1)C(=O)NCc1ccccc1 [NCL227] |  |  |  |  |
| >128 µg/mL | >128 µg/mL | >128 µg/mL | >128 µg/mL | >128 µg/mL | >128 µg/mL |  |  |  |  |  |  | CCCCCCNC(=O)N(N=Cc1ccc(Cl)cc1)C(N)=NN=Cc1ccc(Cl)cc1 [NCL228] |  |  |  |  |
| >128 µg/mL | >128 µg/mL | >128 µg/mL | >128 µg/mL | >128 µg/mL | >128 µg/mL |  |  |  |  |  |  | NC(=N/N=C/c1ccc(Cl)cc1)N(/N=C/c1ccc(Cl)cc1)C(=O)NCc1ccco1 [NCL229] |  |  |  |  |
| >128 µg/mL | >128 µg/mL | >128 µg/mL | >128 µg/mL | >128 µg/mL | >128 µg/mL |  |  |  |  |  |  | COc1ccc(/C=N/Nc2cc(N/N=C/c3ccc(OC)cc3)nc(N)n2)cc1 [NCL230] |  |  |  |  |

— patent publication US10253002B2, “Compounds and methods of treating infections” (Neoculi Pty Ltd., priority 2013, dated 2019)
